The values below come from patent US20250346613A1, “BORIC ACID PROTEASOME INHIBITOR AND USE THEREOF” (ARTIVILA BIOPHARMA, priority 2022, published 2025).

Structures are written as SMILES.

Data set [1] in a line: Blood concentration measurement of orally-administrated mice. It is filed as in vivo, C57BL/6JNifdc mice. The following applies: C57BL/6JNifdc, mouse, plasma, oral, 30 mg/kg. The protocol:
The C57BL/6JNifdc mice used in this experiment were provided by Zhejiang Vital River Laboratory Animal Technology Co., Ltd. The compounds were dissolved in DMSO/Solutol/Saline (v/v/v=10/10/80) as a stock solution (3 mg/mL). The stock solution was administrated orally to 6 C57BL/6JNifdc mice at a dose of 30 mg/kg. Blood was collected from the orbital venous plexus at 0.5 h, 1 h, 1.5 h, and 2 h after oral administration.
Approximately 200 μL of blood samples were collected into EDTAK2 Blood Collection tubes and then immediately centrifuged at 10,000 rpm for 5 min. 66 μL of plasma supernatant was added with 198 μL of acetonitrile (Energy), the resulting mixture was shaken on a vortex for 5 min, and then immediately centrifuged at 13000 rpm for 8 min. 200 μL of supernatant was taken for blood compound concentration measurement.
The compound was accurately weighed and dissolved in acetonitrile to a concentration of 100 μg/mL. 50 μL of compound was pipetted and added to 4.95 mL of acetonitrile/water (v/v=3/1) solution to obtain 1000 ng/mL mother liquid. 650 μL of the mother liquid was taken and sequentially diluted with a solution of acetonitrile/water (v/v=3/1) in a 2-fold gradient to obtain standard samples with various concentrations of 500 ng/mL, 250 ng/mL, 125 ng/mL, 62.5 ng/mL, and 31.25 ng/mL.
Standard solutions with concentrations of 1000 ng/mL, 500 ng/mL, 250 ng/mL, 125 ng/mL, 62.5 ng/mL, and 31.25 ng/mL were measured by using LC-MS (LC-MS 2020+LC-2030 Plus, Shimadzu) SIM mode to obtain a calibration curve. The treated blood samples were measured by this method and then subjected to quantitative analysis by using the calibration curve to obtain compound concentration data of each treated blood sample.
The data were exported and the average blood compound concentration at each sampling time was calculated.
Blood compound concentration=compound concentration in treated blood sample×4/molecular weight of the compound. The average blood compound concentration is the average of the compound concentrations in the blood at each sampling time.

For data set [2] the following is noted: background statement; cannot be used orally; cited from earlier work.
Data set [3] deals with T1, β5c subunit of the 20S proteasome (Homo sapiens, UniProt P20618+P28074).
T1 construct: The proteasome tested in the present disclosure was derived from Raji cells; endogenous in cells; host or cells: Raji cells
Put plainly: Proteasome inhibitory activity, β5c subunit (Raji cells treated with compound, lysed, Suc-LLVY-AMC substrate). Type of data set: cell-based. The following applies: proteasome from Raji cells incubated with compound 4 h. A digest of the protocol:
(§1)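 Raji cells were treated for 4 h at 37 °C with compound (from 1 μM, 3-fold, 8 concentrations), then lysed. Lysate activity was read 10 min at 37 °C with Ac-ANW-AMC (β5i) or Suc-LLVY-AMC (β5c) at 345/445 nm. Percent inhibition was relative to DMSO-treated lysate.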

Data set [4] addresses T2, β5i subunit of the 20S proteasome (Homo sapiens, UniProt P20618+P28062).
T2 construct: The proteasome tested in the present disclosure was derived from Raji cells; endogenous in cells; host or cells: Raji cells
The data set can be described thus: Proteasome inhibitory activity, β5i subunit (Raji cells treated with compound, lysed, Ac-ANW-AMC substrate). Type of data set: cell-based. The conditions noted are these: proteasome from Raji cells incubated with compound 4 h. In outline:
as §1

In the next data set the test system is MM.1S cell strain. The data set can be described thus: Inhibitory activity of cell strain (CellTiter-Glo). Type of data set: cell-based. The following applies: Homo sapiens, MM1.S, 72 h incubation. In outline: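 Cells seeded at 1×10^5 per well in RPMI1640 complete medium for 24 h, then treated 72 h at 37 °C, 5% CO2 with 3-fold dilutions, final 5×10^−7 M down to 2.29×10^−10 M. CellTiter-Glo luminescence; inhibition calculated against DMSO-only cells and medium-only blanks.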

For `CC(C)C[C@H](NC(=O)[C@H](Cc1ccccc1)NC(=O)c1cnccn1)B(O)O` [Bortezomib, bortezomib, reference compound], in data set [1] (0.5 h, read-out: Average blood compound concentration (μM) 0.5 h), the concentration at 0.5 h is 2 µM. Also, in data set [1] (1.0 h, read-out: Average blood compound concentration (μM) 1.0 h), the concentration at 1 h amounted to 1.3 µM. Moreover, the concentration at 1.5 h in data set [1] (1.5 h, read-out: Average blood compound concentration (μM) 1.5 h) came to 1 µM. For the same compound, the concentration at 2 h in data set [1] (2.0 h, read-out: Average blood compound concentration (μM) 2.0 h) is 0.9 µM. In addition, the “bioavailability (oral)” value in data set [2] is “low bioavailability”.

Regarding `O=C(NCc1ccc2[nH]ccc2c1)C(Cc1ccccc1)C(=O)N[C@@H](Cc1coc2ccccc12)B(O)O` (stereo partly drawn) [Example 91, ((1R)-1-(3-(((1H-indol-5-yl)methyl)amino)-2-benzyl-3-oxopropionamido)-2-(benzofuran-3-yl)ethyl)boric acid], the IC50 is 50 to 200 nM in data set [3], not above 50 nM in data set [4] and not above 50 nM in the data set with MM.1S cell strain.

With `Cc1ccc(C[C@H](NC(=O)C(C)C(=O)NCc2cccc(C(F)(F)F)c2)B(O)O)cc1` (stereo partly drawn) [Example 92, ((1R)-1-(2-methyl-3-oxo-3-((3-(trifluoromethyl)benzyl)amino)propionamido)-2-(p-tolyl)ethyl)boric acid], the concentration for half-maximal inhibition (IC50) (in data set [3]; in data set [4]; in the data set on MM.1S cell strain) was not above 50 nM in each case.
